In ChEMBL document CHEMBL1909046, “DrugMatrix in vitro pharmacology data”:

What was measured:
[1] = molecular target: Beta-1 adrenergic receptor (Homo sapiens, UniProt P08588); assay: DRUGMATRIX: Adrenergic beta1 radioligand binding (ligand: [125I] Cyanopindolol); format: cell membranes, CHO-K1, Membrane; conditions: cho-k1; Not Active = under 50% inhibition at 10 µM
[2] = molecular target: Aldo-keto reductase family 1 member B1 (Rattus norvegicus, UniProt P07943); format: tissue-based, Lens of camera-type eye;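 further: inhibition of aldose reductase enzyme activity, measured with DL-glyceraldehyde as the substrate; in other assays of this panel Not Active means under 50% inhibition at 10 µM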
[3] = DRUGMATRIX: Sigma2 radioligand binding (ligand: [3H] Ifenprodil); format: cell membranes, Rattus norvegicus, Wistar, Brain, Membrane; conditions: Not Active = under 50% inhibition at 10 µM
[4] = molecular target: T1, C-X-C chemokine receptor type 1 (Homo sapiens, UniProt P25024); further: in other assays of this panel Not Active means under 50% inhibition at 10 µM
T1 sequence (P25024 whole entry): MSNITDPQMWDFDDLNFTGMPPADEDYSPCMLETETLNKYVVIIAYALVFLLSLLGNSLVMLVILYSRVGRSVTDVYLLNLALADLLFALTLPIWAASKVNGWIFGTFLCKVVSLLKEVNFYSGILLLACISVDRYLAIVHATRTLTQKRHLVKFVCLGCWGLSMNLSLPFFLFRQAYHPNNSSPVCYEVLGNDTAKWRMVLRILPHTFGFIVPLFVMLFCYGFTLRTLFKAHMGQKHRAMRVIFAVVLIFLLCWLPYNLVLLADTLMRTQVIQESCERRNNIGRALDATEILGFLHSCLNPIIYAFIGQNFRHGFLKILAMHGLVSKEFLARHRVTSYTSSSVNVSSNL

D(4) dopamine receptor = molecular target: T2, D(4) dopamine receptor (Homo sapiens, UniProt P21917); assay: DRUGMATRIX: Dopamine D4.2 radioligand binding (ligand: [3H] Spiperone); format: cell membranes, CHO-K1, Membrane; conditions: cho-k1; Not Active = under 50% inhibition at 10 µM
T2 sequence (P21917 whole entry): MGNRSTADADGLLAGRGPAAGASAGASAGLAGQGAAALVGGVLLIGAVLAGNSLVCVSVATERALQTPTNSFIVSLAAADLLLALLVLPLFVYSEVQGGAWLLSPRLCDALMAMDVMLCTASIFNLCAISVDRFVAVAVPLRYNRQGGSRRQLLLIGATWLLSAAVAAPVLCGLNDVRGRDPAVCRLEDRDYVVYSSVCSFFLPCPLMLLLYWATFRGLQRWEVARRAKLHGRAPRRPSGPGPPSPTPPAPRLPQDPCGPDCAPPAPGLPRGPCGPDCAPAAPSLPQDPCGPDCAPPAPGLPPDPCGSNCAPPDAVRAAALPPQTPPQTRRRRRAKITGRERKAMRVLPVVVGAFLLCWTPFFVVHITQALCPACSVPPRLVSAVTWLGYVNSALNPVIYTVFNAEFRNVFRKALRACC

[5] = DRUGMATRIX: Glutamate, NMDA, Agonism radioligand binding (ligand: [3H] CGP-39653); format: cell membranes, Rattus norvegicus, Wistar, Cerebral cortex, Membrane; conditions: Not Active = under 50% inhibition at 10 µM
[6] = molecular target: T3, Receptor-type tyrosine-protein phosphatase C (Homo sapiens, UniProt P08575); design: species or system Escherichia coli;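 further: inhibition of CD45 enzyme activity measured using DiFMUP as substrate; in other assays of this panel Not Active means under 50% inhibition at 10 µM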
T3 sequence (P08575 whole entry): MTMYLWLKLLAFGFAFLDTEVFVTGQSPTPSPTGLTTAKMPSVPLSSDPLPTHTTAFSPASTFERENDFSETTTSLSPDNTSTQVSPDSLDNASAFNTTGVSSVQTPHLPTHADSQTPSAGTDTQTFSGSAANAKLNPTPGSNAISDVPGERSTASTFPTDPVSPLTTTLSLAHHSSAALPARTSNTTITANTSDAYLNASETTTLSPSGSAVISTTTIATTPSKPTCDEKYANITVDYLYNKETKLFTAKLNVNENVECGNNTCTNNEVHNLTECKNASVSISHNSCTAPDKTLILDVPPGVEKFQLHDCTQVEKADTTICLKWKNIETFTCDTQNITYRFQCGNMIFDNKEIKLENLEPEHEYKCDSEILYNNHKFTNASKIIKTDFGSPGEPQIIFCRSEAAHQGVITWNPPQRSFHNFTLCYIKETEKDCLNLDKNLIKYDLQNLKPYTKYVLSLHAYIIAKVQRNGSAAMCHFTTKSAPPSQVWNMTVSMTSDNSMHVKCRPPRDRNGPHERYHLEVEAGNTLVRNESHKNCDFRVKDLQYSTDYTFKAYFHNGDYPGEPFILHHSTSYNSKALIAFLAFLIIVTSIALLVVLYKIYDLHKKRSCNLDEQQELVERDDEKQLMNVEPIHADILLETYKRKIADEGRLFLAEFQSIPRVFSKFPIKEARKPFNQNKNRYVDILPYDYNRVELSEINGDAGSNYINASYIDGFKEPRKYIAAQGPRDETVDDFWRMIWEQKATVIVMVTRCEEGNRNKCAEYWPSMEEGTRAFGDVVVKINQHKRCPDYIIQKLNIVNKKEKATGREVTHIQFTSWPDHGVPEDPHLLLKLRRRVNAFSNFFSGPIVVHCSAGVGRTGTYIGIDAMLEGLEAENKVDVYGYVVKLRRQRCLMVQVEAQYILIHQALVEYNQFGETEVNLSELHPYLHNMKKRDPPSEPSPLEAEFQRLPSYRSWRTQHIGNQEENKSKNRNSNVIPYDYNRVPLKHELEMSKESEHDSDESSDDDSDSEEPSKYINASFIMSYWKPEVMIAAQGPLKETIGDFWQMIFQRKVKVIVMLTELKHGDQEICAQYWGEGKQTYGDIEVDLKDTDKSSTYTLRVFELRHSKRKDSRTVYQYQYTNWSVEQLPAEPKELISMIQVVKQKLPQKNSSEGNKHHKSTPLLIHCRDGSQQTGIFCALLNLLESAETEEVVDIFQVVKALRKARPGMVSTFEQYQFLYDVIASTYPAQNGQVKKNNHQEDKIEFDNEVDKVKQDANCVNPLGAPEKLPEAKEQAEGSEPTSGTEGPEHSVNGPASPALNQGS

Estrogen receptor = molecular target: T4, Estrogen receptor (Homo sapiens, UniProt P03372); conditions: sf9; further: in other assays of this panel Not Active means under 50% inhibition at 10 µM
T4 sequence (P03372 whole entry): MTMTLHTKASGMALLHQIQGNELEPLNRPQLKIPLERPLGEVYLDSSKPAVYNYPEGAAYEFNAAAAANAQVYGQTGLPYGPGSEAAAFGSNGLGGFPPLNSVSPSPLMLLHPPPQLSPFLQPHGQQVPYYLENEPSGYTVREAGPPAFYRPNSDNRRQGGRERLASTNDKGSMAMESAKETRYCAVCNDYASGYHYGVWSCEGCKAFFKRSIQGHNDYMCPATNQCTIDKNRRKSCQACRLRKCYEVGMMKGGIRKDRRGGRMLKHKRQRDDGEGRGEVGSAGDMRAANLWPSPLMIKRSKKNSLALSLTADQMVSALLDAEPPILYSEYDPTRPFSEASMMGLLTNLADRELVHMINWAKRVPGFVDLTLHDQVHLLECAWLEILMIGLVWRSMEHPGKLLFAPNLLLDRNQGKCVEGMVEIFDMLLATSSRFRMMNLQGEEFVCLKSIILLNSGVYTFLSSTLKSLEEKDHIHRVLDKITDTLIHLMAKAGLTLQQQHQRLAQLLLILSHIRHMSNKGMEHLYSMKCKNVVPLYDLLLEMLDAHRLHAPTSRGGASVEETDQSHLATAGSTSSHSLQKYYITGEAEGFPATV

Beta-1 adrenergic receptor, sequence (P08588 whole entry): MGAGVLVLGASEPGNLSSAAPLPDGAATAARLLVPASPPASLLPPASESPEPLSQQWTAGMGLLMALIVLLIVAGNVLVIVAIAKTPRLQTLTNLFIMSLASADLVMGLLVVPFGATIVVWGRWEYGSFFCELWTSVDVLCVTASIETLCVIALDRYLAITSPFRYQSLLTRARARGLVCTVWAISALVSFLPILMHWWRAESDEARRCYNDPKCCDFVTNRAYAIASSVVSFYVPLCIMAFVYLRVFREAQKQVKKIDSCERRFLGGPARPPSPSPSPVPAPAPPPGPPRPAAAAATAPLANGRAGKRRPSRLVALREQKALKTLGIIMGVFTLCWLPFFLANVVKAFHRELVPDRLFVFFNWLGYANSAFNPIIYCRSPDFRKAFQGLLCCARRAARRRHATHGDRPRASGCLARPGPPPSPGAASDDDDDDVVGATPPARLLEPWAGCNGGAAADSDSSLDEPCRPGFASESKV

O=C1CN=C(c2ccccc2)c2cc([N+](=O)[O-])ccc2N1 [NITRAZEPAM]
Not Active: IC50 [1] | IC50 [2] | IC50 [3] | Ki [3] | IC50 [4] | IC50 (D(4) dopamine receptor) | IC50 [5] | Ki [5] | IC50 [6] | IC50 (Estrogen receptor)

CNCCC=C1c2ccccc2CCc2ccccc21 [NORTRIPTYLINE]
Not Active: IC50 [1] | IC50 [2] | IC50 [3] | Ki [3] | IC50 [4] | IC50 (D(4) dopamine receptor) | IC50 [5] | Ki [5] | IC50 [6] | IC50 (Estrogen receptor)

CN(C)[C@@H]1C(O)=C(C(N)=O)C(=O)[C@@]2(O)C(O)=C3C(=O)c4c(O)cccc4[C@@](C)(O)[C@H]3[C@H](O)[C@@H]12 [OXYTETRACYCLINE]
Not Active: IC50 [1] | IC50 [2] | IC50 [3] | Ki [3] | IC50 [4] | IC50 (D(4) dopamine receptor) | IC50 [5] | Ki [5] | IC50 [6] | IC50 (Estrogen receptor)

Fc1ccc([C@@H]2CCNC[C@H]2COc2ccc3c(c2)OCO3)cc1 [PAROXETINE]
Not Active: IC50 [1] | IC50 [2] | IC50 [3] | Ki [3] | IC50 [4] | IC50 (D(4) dopamine receptor) | IC50 [5] | Ki [5] | IC50 [6] | IC50 (Estrogen receptor)

CC(=O)CCCCn1c(=O)c2c(ncn2C)n(C)c1=O [PENTOXIFYLLINE]
Not Active: IC50 [1] | IC50 [2] | IC50 [3] | Ki [3] | IC50 [4] | IC50 (D(4) dopamine receptor) | IC50 [5] | Ki [5] | IC50 [6] | IC50 (Estrogen receptor)

CNC(=O)Oc1ccc2c(c1)[C@]1(C)CCN(C)[C@@H]1N2C [PHYSOSTIGMINE]
Not Active: IC50 [1] | IC50 [2] | IC50 [3] | Ki [3] | IC50 [4] | IC50 (D(4) dopamine receptor) | IC50 [5] | Ki [5] | IC50 [6] | IC50 (Estrogen receptor)

C=C(C)[C@@H]1[C@H]2OC(=O)[C@@H]1[C@]1(O)C[C@H]3O[C@]34C(=O)O[C@H]2[C@]14C [PICROTOXININ]
Not Active: IC50 [1] | IC50 [2] | IC50 [3] | Ki [3] | IC50 [4] | IC50 (D(4) dopamine receptor) | IC50 [5] | Ki [5] | IC50 [6] | IC50 (Estrogen receptor)

CN1C(C(=O)Nc2ccccn2)=C(O)c2ccccc2S1(=O)=O [PIROXICAM]
Not Active: IC50 [1] | IC50 [2] | IC50 [3] | Ki [3] | IC50 [4] | IC50 (D(4) dopamine receptor) | IC50 [5] | Ki [5] | IC50 [6] | IC50 (Estrogen receptor)

CCCc1cc(=O)[nH]c(=S)[nH]1 [PROPYLTHIOURACIL]
Not Active: IC50 [1] | IC50 [2] | IC50 [3] | Ki [3] | IC50 [4] | IC50 (D(4) dopamine receptor) | IC50 [5] | Ki [5] | IC50 [6] | IC50 (Estrogen receptor)

CARBOPLATIN
Not Active: IC50 [1] | Ki [1] | IC50 [2] | Ki [2] | IC50 [3] | Ki [3] | IC50 [4] | Ki [4] | IC50 (D(4) dopamine receptor) | Ki (D(4) dopamine receptor) | IC50 [5] | Ki [5] | IC50 [6] | Ki [6] | IC50 (Estrogen receptor) | Ki (Estrogen receptor)

CISPLATIN
Not Active: IC50 [1] | Ki [1] | IC50 [2] | Ki [2] | IC50 [3] | Ki [3] | IC50 [4] | Ki [4] | IC50 (D(4) dopamine receptor) | Ki (D(4) dopamine receptor) | IC50 [5] | Ki [5] | IC50 [6] | Ki [6] | IC50 (Estrogen receptor) | Ki (Estrogen receptor)

GOLD SODIUM THIOMALATE
Not Active: IC50 [1] | Ki [1] | IC50 [2] | Ki [2] | IC50 [3] | Ki [3] | IC50 [4] | Ki [4] | IC50 (D(4) dopamine receptor) | Ki (D(4) dopamine receptor) | IC50 [5] | Ki [5] | IC50 [6] | Ki [6] | IC50 (Estrogen receptor) | Ki (Estrogen receptor)
